We go through 14 compounds from PMC12390684 (Viruses, 2025).

Like-named read-outs stand apart in the source and are kept apart here.

Series [1] deals with IN-GCN2 interaction (6xHis-IN / GST-GCN2) (UniProt P04585+Q9P2K8). As to the kind of experiment: biochemical. Format: binding, HIV-1 IN; human GCN2. Particulars: for IC50: IC50, inhibition of IN-GCN2 interaction; for IN-GCN2 interaction (%): screen, single dose 100 µM, single replicate, residual AlphaLISA signal normalized to DMSO control.
The nature of series [2]: Cytotoxicity (CellTiter 96 AQueous). Format: cell-based. Particulars: human.
Series [3] concerns the target T1, HIV-1 IN (Human immunodeficiency virus type 1 group M subtype B, UniProt P04585). Particulars: cited from earlier work.
The test system of another series is HIV-1Laï. As to the kind of experiment: microbe, parasite or virus in culture. It is filed as cell-based. Particulars: for EC50: 24 h infection, read-out: EC50; for SI (CC50/EC50): selectivity index; for nontoxic concentrations at which a proviral effect was seen: Figure S5.
Series [4] has as its target T1, HIV-1 IN. As to the kind of experiment: Strand transfer (ST) gel-based assay. Format: biochemical.
Setting [5] is: SAR study, fresh dilutions from powder, at least three independent experiments.
Where [6] appears, read: Human immunodeficiency virus 1, MAGI, 24 h.
The mark [7] stands for this setting: P4 MAGI CCR5+ cells, 24 h, read-out: CC50.
[8] abbreviates: plated compounds of the screen, dose-response 100 µM to 46 nM (Figure 1B), n = 9.

Chain of IN-GCN2 interaction (6xHis-IN / GST-GCN2) (Q9P2K8 192-1024, other chains not shown): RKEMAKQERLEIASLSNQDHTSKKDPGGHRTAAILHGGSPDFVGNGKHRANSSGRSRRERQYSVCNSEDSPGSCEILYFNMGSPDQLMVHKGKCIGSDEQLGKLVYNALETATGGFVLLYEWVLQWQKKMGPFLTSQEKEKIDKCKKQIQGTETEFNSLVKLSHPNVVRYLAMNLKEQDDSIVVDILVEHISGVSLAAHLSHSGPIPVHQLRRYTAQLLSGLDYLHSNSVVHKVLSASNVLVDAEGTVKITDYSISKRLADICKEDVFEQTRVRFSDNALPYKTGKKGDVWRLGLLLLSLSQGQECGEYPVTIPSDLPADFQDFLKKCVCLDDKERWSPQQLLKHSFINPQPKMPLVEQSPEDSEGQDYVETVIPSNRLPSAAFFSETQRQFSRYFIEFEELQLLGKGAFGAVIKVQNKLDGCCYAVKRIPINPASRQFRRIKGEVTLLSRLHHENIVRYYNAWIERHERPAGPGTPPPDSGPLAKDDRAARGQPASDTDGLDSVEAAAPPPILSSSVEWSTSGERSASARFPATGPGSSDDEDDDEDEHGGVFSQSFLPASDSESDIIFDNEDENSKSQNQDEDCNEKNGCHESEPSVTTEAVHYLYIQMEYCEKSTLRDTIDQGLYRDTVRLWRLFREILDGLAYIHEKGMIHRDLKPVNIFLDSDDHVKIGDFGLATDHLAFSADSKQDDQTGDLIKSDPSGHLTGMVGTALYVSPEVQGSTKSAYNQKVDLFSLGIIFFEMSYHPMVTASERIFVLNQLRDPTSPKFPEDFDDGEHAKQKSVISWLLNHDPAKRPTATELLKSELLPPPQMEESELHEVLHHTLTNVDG

As to `COc1cccc2c1C(=O)c1c(O)c3c(c(O)c1C2=O)CC(O)(C(=O)CO)CC3OC1CC(N(C)C)C(O)C(C)O1` (stereo not drawn) [Compound 1r], the IC50 (as a rule, the concentration that gives 50% inhibition) in series [1] (setting [5]) is > 100 µM. Besides, the CC50 (as a rule, the concentration that lowers cell viability or growth by half) at 24 h in series [2] came to 0.225 µM. Also, the “inhibition of IN in vitro, in words” value at HIV-1 IN [3] is listed as “micromolar inhibitors”.

On to `COc1cc(OC)c2c(O)c3c(c(-c4ccc5cc6c(c(O)c5c4O)C(=O)CC(C)(O)C6)c2c1)CC(C)OC3C` (stereo not drawn) [Compound 2b, Karwinskia toxin T-544], for which the CC50 at 24 h in series [2] (24 h, read-out: CC50) is > 5 µM. Moreover, the EC50 (as a rule, the concentration that produces a half-maximal response) in the series with HIV-1Laï (setting [6]) is > 5 µM. For the same compound, the IC50 at HIV-1 IN [3] (read-out: IC50, inhibition of both 3′-P and ST) is 21 µM.

In the case of `O=C1c2ccccc2C(=O)c2c(NCCNCCO)ccc(O)c21` [Compound 2d], the IC50 in series [1] (setting [5]) amounted to 1.2 µM. Also, the “fold loss of potency at inhibiting ST compared to NSC279836” value on HIV-1 IN [4] is listed as “around 20 fold”. Besides, the “ST activity compared to the DMSO control” value on HIV-1 IN [4] (increase at lower concentrations) is given as “up to 170%”. The CC50 at 24 h in series [2] (setting [7]) was > 5 µM. The “viral replication, maximum, relative to DMSO control” value with HIV-1Laï (dose-dependent increase (pro-viral effect)) is on record as “up to 290%”.

`O=C1c2c(O)ccc(O)c2C(=O)c2c(NCCCO)ccc(NCCCO)c21` [Compound 2l] returned a half-inhibitory concentration (IC50) in series [1] (setting [5]) of 13 µM. Further, in series [2] (setting [7]), the CC50 at 24 h is > 5 µM. Besides, the EC50 in the series with HIV-1Laï (setting [6]) is > 5 µM.

In series [1] (setting [5]), `N#CCCNc1ccc(NCCC#N)c2c1C(=O)c1c(O)ccc(O)c1C2=O` [Compound 2m] came in with an IC50 of 16 µM. The CC50 at 24 h in series [2] (setting [7]) was > 5 µM. For the same compound, the EC50 in the series with HIV-1Laï (setting [6]) was > 5 µM.

`CCOC(=O)N1CCc2cc(OC)c(OC)c3c2c1cc1cc(OC)c(OC)cc13` [Compound 3d] gave an IC50 in series [1] (setting [5]) of 71 µM. Further, in series [2] (setting [7]), the CC50 at 24 h was > 5 µM. Besides, in the series on HIV-1Laï, the “effect on HIV replication, in words” value was “decrease in viral replication”; the EC50 was 1.02 µM; the “SI (CC50/EC50)” value was >4.9. In addition, the EC50 in the series on HIV-1Laï (setting [6]) was found to be 1 µM.

In series [1] (setting [5]), `COc1cc2c(cc1OC)-c1c3c(cc4c1[C@H](C2)N(C)CC4)OCO3` [Compound 3e] registered an IC50 of 73 µM. Further, the CC50 at 24 h in series [2] was > 5 µM. The EC50 with HIV-1Laï (setting [6]) was > 5 µM.

`S=c1[nH]c2ccccc2nc1NCc1ccccc1` [Compound 3f] registered an IC50 in series [1] (setting [5]) of 83 µM. Further, the CC50 at 24 h in series [2] (setting [7]) was > 5 µM. In the series with HIV-1Laï, the EC50 was 2.37 µM and the “SI (CC50/EC50)” value is reported as >2.1. Also, the EC50 in the series on HIV-1Laï (setting [6]) is 2.4 µM.

In the case of `COc1cc2c3c(c1)-c1c(ccc(OC)c1O)CC3N(C)CC2` (stereo not drawn) [Compound 3i], the IC50 in series [1] (setting [5]) is > 100 µM. In series [2], the cytotoxic concentration (CC50) at 24 h is > 5 µM. In the series on HIV-1Laï (setting [6]), the EC50 was > 5 µM.

The compound `CCCCCC1=C/C(=C/c2[nH]c(-c3ccc[nH]3)cc2OC)N=C1C` [NSC47147, prodigiosin] came in with an IC50 in series [1] (plated compounds of the screen, dose-response (Figure 1B), n = 9) of 0.88 µM. For the same compound, the “IN-GCN2 interaction (%)” value in series [1] is listed as 6.31%. Besides, the CC50 at 24 h in series [2] (24 h, read-out: CC50) came to 1.96 µM. Further, in the series with HIV-1Laï, the “nontoxic concentrations at which a proviral effect was seen” value was < 200 nM.

In the case of `CCCCC1CCCCCCc2[nH]c(C=C3N=C(c4ccc[nH]4)C=C3OC)cc21` (stereo not drawn) [NSC247562], in series [1] (setting [8]), the IC50 came out at 1.45 µM. The “IN-GCN2 interaction (%)” value in series [1] was 8.97%. Besides, the CC50 in series [2] (24 h, read-out: CC50) stood at 3.85 µM. In the series on HIV-1Laï, the “nontoxic concentrations at which a proviral effect was seen” value was < 200 nM.

As for `CC(=O)OC(C)C1C2=C(C(=O)CC1(C)O)C(=O)c1c(ccc(-c3ccc4c(c3O)C(=O)C3=C(C4=O)C(C(C)OC(C)=O)C(C)(O)CC3=O)c1O)C2=O` (stereo not drawn) [NSC248605, Julimycin B2], the IC50 in series [1] (setting [8]) was 30 µM; at HIV-1 IN [3] (read-out: IC50, non-selective inhibition of IN activities), 140 µM. Besides, in series [1], the “IN-GCN2 interaction (%)” value turned out to be 6.97%. For the same compound, the 50% cytotoxic concentration (CC50) at 24 h in series [2] (setting [7]) is > 5 µM. The “effect on HIV replication, in words” value in the series on HIV-1Laï is “anti-”. Also, in the series with HIV-1Laï (Human immunodeficiency virus 1, MAGI), the EC50 was determined as 0.167 µM.

`COc1cccc2c1C(=O)c1c(O)c3c(c(O)c1C2=O)C[C@@](O)(C(=O)CO)C[C@@H]3O[C@H]1C[C@H](N2CCOCC2)[C@H](O)[C@H](C)O1` [NSC354646, reference compound]: the “inhibition of IN in vitro, in words” value on HIV-1 IN [3] is reported as “micromolar inhibitors”.

For the compound `COc1cc2c3c(cc4ccccc4c3c1O)N(C)CC2` [NSC785168], the results for the IC50 in series [1] (setting [5]) and in series [1] (setting [8]) were 17 µM and 5.7 µM, respectively. The “IN-GCN2 interaction (%)” value in series [1] came out at 4.53%. Moreover, in series [2] (24 h, read-out: CC50), the CC50 is > 5 µM. The EC50 in the series on HIV-1Laï (setting [6]) was > 5 µM.
